Experimental data reported in patent US10174013B2, “Benzimidazole derivatives as kinase inhibitors” (SELVITA S.A., priority 2012, dated 2019).
Structures can show the parent of a compound that is named as a salt. Where two headings read alike, the source gives them in different places.

Key:
Pim-1 = Pim-1 (Homo sapiens (Human), UniProt P11309); assay: ADP-Glo Kinase Assay, Pim-1; format: biochemical; conditions: 1 μM compound; for inhibition at 1 µM: read-out: Pim-1 % INH (1 μM)
Method in brief: (§1)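 ADP-Glo luminescent ADP detection of human kinase activity in 5 mM MOPS pH 7.5, 5 mM MgCl2, 0.4 mM EDTA, 1.5 mM DTT. ATP at each kinase's apparent Km; compounds diluted to 1000 nM in assay buffer. Percent inhibition from normalised luminescence.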

FLT3wt = FLT3wt (Homo sapiens (Human), UniProt P36888); assay: ADP-Glo Kinase Assay, Flt3 wt; format: biochemical; conditions: 1 μM compound; for inhibition at 1 µM: read-out: Flt3wt % INH (1 μM)
Method in brief: as §1

CDK2/E = CDK2/E (Homo sapiens (Human), UniProt P24941); assay: ADP-Glo Kinase Assay, CDK2/E; format: biochemical; conditions: 1 μM compound; for inhibition at 1 µM: read-out: CDK2/E % INH (1 μM)
Method in brief: as §1

MV4-11 cells = assay: Growth inhibition, MTS assay, MV4-11; format: cell-based, Human; conditions: MTS cell viability, read-out: MV4-11 ED50
HEL92 cells = assay: Growth inhibition, MTS assay, HEL92; format: cell-based, Human; conditions: MTS cell viability, read-out: HEL92 ED50
MOLM16 cells = assay: Growth inhibition, MTS assay, MOLM16; format: cell-based, Human; conditions: MTS cell viability, read-out: MOLM 16 ED50
From the text: The following cell lines, were obtained and used in tests as outlined below: • Human myelomonocytic, biphenotypic leukemia MV4-11 cells (harboring a Flt3-ITD mutation); • Human Acute Myeloid Leukemia MOLM16 cells; • Human Acute Myeloid Leukemia MOLM13 cells (harboring a Flt3-ITD mutation); • Human Myeloid Leukemia KG-1 cells; • Human erythroleukemia HEL92 cells; • Human mantle cell lymphoma Jeko-1 cells; • Human hepatocellular carcinoma HepG2 cells; and • Human colon adenocarcinoma SW-480 cells.
The assays were carried out according to the following protocol, which is described as an example for the MV4-11 cells:
Ten thousand MV4-11 cells were inoculated into each well of a 96-well microplate (manufactured by Corning Corp.) using Iscove's MDM medium (culture medium) containing 10% fetal calf serum (FCS). The same day, a dimethyl sulfoxide (DMSO) solution of each test compound prepared in a concentration of 10 mmol/L was further diluted with DMSO to the desired concentrations (0.1, 0.5, 1, 2.5, 5 and 10 micromol/L), and the diluted solution was added to each well. The individual wells were further cultured in 5% carbon dioxide at 37° C. for 72 hours. […] Briefly, 10 μl MTS (3-(4,5-Dimethyl-2-thiazolyl)-5-(carboxymethoxyphenyl)-2-(4-sulfophenyl)-2H-tetrazolium was added to each well, and culturing was performed in 5% carbon dioxide at 37° C. for 2 hours. After this incubation and using a microplate spectrophotometer (Synergy 2 multi-mode microplate reader (BioTek)), the absorbance of each well was measured at 490 nm. The value for cells not incubated with a test compound was designated as 100%. By comparing these values with the absorbance difference obtained at the well in which each test compound was added, the cell viability (% viability) after treatment with the test compound was calculated.

Pim-2 = Pim-2 (Homo sapiens (Human), UniProt Q9P1W9); assay: ADP-Glo Kinase Assay, Pim-2; format: biochemical; conditions: 1 μM compound; for inhibition at 1 µM: read-out: Pim-2 % INH (1 μM)
Method in brief: as §1

Pim-3 = Pim-3 (Homo sapiens (Human), UniProt Q86V86); assay: ADP-Glo Kinase Assay, Pim-3; format: biochemical; conditions: 1 μM compound; for inhibition at 1 µM: read-out: Pim-3 % INH (1 μM)
Method in brief: as §1

DYRK1 = DYRK1 (Homo sapiens (Human), UniProt Q13627); assay: ADP-Glo Kinase Assay, DYRK1; format: biochemical; conditions: 1 μM compound; for inhibition at 1 µM: read-out: DYRK1A % INH (1 μM)
Method in brief: as §1

HepG2 cells = assay: Growth inhibition, MTS assay, HepG2; format: cell-based, Human; conditions: MTS cell viability, read-out: HepG2 ED50
Jeko-1 cells = assay: Growth inhibition, MTS assay, Jeko-1; format: cell-based, Human; conditions: Homo sapiens, JeKo-1; 72 hours, MTS cell viability; read-out: Jeko-1 ED50
SW-480 cells = assay: Growth inhibition, MTS assay, SW-480; format: cell-based, Human; conditions: Homo sapiens, SW480; 72 hours, MTS cell viability; read-out: SW-480 ED50
CYP3A4 = CYP3A4 (Homo sapiens (Human), UniProt P08684); assay: Cytochrome P450 inhibition, fluorescence, CYP3A4; format: in vitro ADME; conditions: recombinant CYP3A4, fluorescence detection; read-out: CYP inhibition (CYP 3A4 screening, IC50 class)
Description: The assays for cytochrome P450 inhibition facilitate the identification of drug candidates with lower potential for drug-drug interactions (weak enzymes inhibitors). In vitro experiments were conducted to determine whether a drug inhibits a specific CYP enzyme. The experiments comprised the incubation of the drug with probe substrates for the CYP enzymes, wherein the following recombinant cytochrome P450 isoforms were employed: CYP1A2, CYP2C8, CYP2C9, CYP2C19, CYP2D6 and CYP3A4, together with various probe substrates enabling fluorescence detection. The protocol uses a single substrate concentration near the apparent Km and multiple compound concentrations.
The assay was performed in 96-well microtiter plates. The row designations were A through H and the column designations were 1 through 12. […] Each compound (see Table 6 for tested compounds) was added to the wells in column 1 and serially diluted to the wells in column 8. Wells 9 and 10 were control wells which contained no test compound (therefore no inhibition-full signal is detected.) The wells in columns 11 and 12 were blanks, where STOP solution was added prior to the addition of the enzyme/substrate mix to the NADPH regenerating system (the only signal present in these wells is background noise.) The assay was conducted in a final volume of 0.2 ml per well.
The stock solutions of the tested compounds were prepared in DMSO at 10 mM concentration. […] After mixing the compounds with solution containing NADPH-cofactors, the mixed plate was preincubated in a 37° C. incubator for at least 10 minutes; next, the fluorescence of compounds using recommended excitation/emission filters was measured in order to eliminate false results originating from autofluorescence of the compounds. In the following step, the enzyme/substrate mix was added to columns 1 through 10 and the plates were incubated at 37° C. for specific times depending on the CYP tested (incubation times ranged from 30 to 45 minutes). After adding STOP SOLUTION to all wells and respective enzyme/substrate mix to the wells in columns 11 and 12, the plate was scanned with a fluorescent plate scanner. The excitation/emission filters used for the specific assays are described in the GenTest Screening Kit instruction manual.

Sequence of Pim-2 (Q9P1W9 whole entry): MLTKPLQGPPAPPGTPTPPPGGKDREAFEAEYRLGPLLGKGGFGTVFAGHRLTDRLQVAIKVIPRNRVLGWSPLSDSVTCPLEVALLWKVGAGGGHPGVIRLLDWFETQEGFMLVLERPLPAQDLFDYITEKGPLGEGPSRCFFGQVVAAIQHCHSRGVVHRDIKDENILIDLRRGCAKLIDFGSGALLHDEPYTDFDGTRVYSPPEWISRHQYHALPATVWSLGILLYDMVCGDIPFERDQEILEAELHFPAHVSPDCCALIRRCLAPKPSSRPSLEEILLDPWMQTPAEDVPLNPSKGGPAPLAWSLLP
Sequence of FLT3wt (P36888 27-993): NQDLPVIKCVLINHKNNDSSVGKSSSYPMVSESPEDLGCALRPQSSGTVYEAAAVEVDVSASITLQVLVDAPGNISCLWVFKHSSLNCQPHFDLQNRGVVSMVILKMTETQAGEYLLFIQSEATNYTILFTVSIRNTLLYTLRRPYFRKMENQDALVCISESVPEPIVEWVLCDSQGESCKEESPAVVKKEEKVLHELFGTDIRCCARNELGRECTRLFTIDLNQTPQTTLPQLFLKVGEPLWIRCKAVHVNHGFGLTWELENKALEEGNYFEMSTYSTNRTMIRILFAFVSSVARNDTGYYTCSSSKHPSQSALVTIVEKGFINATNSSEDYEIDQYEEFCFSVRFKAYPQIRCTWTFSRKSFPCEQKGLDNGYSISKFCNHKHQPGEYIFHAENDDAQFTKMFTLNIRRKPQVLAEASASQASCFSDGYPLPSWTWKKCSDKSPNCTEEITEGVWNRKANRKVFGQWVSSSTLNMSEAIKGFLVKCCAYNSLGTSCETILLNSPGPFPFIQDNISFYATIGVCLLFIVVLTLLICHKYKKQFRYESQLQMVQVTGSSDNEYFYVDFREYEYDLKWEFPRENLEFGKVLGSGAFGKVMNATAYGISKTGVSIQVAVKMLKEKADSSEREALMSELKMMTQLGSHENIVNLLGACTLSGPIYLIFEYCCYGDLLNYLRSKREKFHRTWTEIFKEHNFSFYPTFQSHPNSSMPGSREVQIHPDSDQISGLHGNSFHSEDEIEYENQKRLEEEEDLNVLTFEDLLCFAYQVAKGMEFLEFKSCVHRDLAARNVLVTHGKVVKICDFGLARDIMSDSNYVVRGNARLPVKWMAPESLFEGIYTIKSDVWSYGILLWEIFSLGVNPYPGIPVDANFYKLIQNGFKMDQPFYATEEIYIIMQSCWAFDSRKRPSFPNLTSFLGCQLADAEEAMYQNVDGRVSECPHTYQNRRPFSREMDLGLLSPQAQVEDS
Sequence of Pim-1 (P11309 whole entry): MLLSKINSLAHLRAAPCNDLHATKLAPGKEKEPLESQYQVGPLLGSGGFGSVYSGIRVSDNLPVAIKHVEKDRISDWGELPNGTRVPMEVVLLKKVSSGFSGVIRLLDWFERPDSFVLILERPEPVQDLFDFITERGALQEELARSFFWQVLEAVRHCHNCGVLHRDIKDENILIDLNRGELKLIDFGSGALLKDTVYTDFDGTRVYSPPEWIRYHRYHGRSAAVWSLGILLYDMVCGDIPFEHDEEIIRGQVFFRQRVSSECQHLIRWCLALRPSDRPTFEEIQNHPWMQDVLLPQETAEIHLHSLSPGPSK
Sequence of CYP3A4 (P08684 whole entry, canonical isoform): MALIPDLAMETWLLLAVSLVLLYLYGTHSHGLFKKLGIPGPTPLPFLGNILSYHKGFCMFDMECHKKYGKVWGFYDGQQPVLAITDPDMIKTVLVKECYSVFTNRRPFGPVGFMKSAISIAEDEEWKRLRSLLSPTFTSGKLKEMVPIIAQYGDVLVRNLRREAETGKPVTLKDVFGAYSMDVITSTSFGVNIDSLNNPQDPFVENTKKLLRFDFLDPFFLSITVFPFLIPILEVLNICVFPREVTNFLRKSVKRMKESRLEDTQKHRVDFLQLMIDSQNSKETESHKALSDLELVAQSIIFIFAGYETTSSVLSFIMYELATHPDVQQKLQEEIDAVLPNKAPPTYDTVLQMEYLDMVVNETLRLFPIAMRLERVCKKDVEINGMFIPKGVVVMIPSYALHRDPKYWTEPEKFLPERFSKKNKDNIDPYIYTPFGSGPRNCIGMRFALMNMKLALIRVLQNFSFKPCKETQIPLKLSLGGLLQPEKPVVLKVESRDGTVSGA

SMILES | Flt3wt % INH (1 μM) (FLT3wt) | inhibition at 1 µM (Pim-1) | inhibition at 1 µM (Pim-2) | inhibition at 1 µM (Pim-3) | inhibition at 1 µM (FLT3wt) | inhibition at 1 µM (CDK2/E) | inhibition at 1 µM (DYRK1) | IC50 (MV4-11 cells; Homo sapiens, MV4-11, 72 h) | IC50 (HEL92 cells; Homo sapiens, 72 h) | IC50 (HepG2 cells; Homo sapiens, HepG2, 72 h) | IC50 (SW-480 cells) | IC50 (CYP3A4) | other results
CC(C)n1c(C2CCCC(N)C2)nc2c([N+](=O)[O-])c(Br)c(Br)cc21 (single isomer, unassigned) [Example 26C, 3-[5,6-dibromo-4-nitro-1-(propan-2-yl)-1H-1,3-benzodiazol-2-yl]cyclohexan-1-amine] | 55% |  |  |  |  |  |  |  |  |  |  |  | Pim-1 % INH (1 μM) (Pim-1): >95%; CDK2/E % INH (1 μM) (CDK2/E): 55%; IC50 (MV4-11 cells; 72 hours): 0.1 µM; IC50 (HEL92 cells; 72 hours): 3.0 µM; IC50 (MOLM16 cells; 72 hours): 0.2 µM
CCn1c(NC2CCNC2)nc2c([N+](=O)[O-])c(Br)c(Br)cc21 (stereo not drawn) [Example 1AF] |  | > 95% | 23% | 71% | < 5% | < 5% | 47% | 1.2 µM | 8.5 µM | 1.8 µM | 5.2 µM | > 10 µM | IC50 (Jeko-1 cells): 2.3 µM
CC(C)n1c(NC2CCC(N)CC2)nc2c([N+](=O)[O-])c(Br)c(Br)cc21 (stereo not drawn) [Example 1BC] | <5% | 79% | 16% | 46% |  |  | 14% | 3.2 µM | 7.9 µM |  |  | 3.3 to 10 µM | CDK2/E % INH (1 μM) (CDK2/E): <5%; IC50 (Jeko-1 cells): 3 µM
CC(C)n1c(NC2CCNC2)nc2c(C#N)c(Br)c(Br)cc21 (stereo not drawn) [Example 1BH] | <5% | 83% |  |  |  | < 5% |  |  |  | 5.6 µM |  | > 10 µM | Pim-2 % INH (1 μM) (Pim-2): 13%; Pim-3 % INH (1 μM) (Pim-3): 60%; DYRK1A % INH (1 μM) (DYRK1): 22%; IC50 (MV4-11 cells; 72 hours): 4.6 µM
CC(C)n1c(N2CCOC(CN)C2)nc2c(C#N)c(Br)c(Br)cc21 (stereo not drawn) [Example 1BM] |  | > 95% |  | 62% | < 5% | < 5% |  | 4.9 µM |  | 4.5 µM |  | 1.1 to 3.3 µM | 
CCn1c(NC2CCC(N)CC2)nc2c([N+](=O)[O-])c(Br)c(Br)cc21 (stereo not drawn) [Example 1DU] | 12% |  |  |  |  |  |  |  | 5.5 µM |  |  |  | Pim-1 % INH (1 μM) (Pim-1): >95%; CDK2/E % INH (1 μM) (CDK2/E): 53%; DYRK1A % INH (1 μM) (DYRK1): 39%; IC50 (MV4-11 cells; 72 hours): 1.0 µM; IC50 (HepG2 cells; 72 hours): 1.3 µM; IC50 (MOLM16 cells; Homo sapiens, MOLM16, 72 h): 0.9 µM
NCCCNc1nc2c([N+](=O)[O-])c(Br)c(Br)cc2[nH]1 [Example 1D] |  | > 95% | 41% | 57% | < 5% | 21% | 16% | 5.9 µM | 8.2 µM | 6.2 µM | 6.2 µM | > 10 µM | 
CCn1c(NC2CCCNCC2)nc2c([N+](=O)[O-])c(Br)c(Br)cc21 (stereo not drawn) [Example 1Q] |  | 86% | 22% | > 95% | < 5% | 6% | 11% | 6.9 µM | 8.2 µM | 1.1 µM | 5.3 µM | 3.3 to 10 µM | IC50 (Jeko-1 cells): 5.4 µM
NCCCNc1nc2c([N+](=O)[O-])c(Br)c(Br)cc2n1C1CCCC1 [Example 2H, N-(3-aminopropyl)-5,6-dibromo-1-cyclopentyl-4-nitro-1H-1,3-benzodiazol-2-amine hydrochloride] |  | > 95% | 56% | > 95% | < 5% | < 5% | 62% | 2 µM | 6.8 µM | 1.5 µM | 1.4 µM | 3.3 to 10 µM | 
CCC(C)n1c(N2CCNCC2)nc2c([N+](=O)[O-])c(Br)c(Br)cc21 (stereo not drawn) [Example 2I, 5,6-dibromo-1-(butan-2-yl)-4-nitro-2-(piperazin-1-yl)-1H-1,3-benzodiazole hydrochloride] |  | > 95% | 75% | > 95% | 89% | 60% | > 95% | 0.2 µM | 0.8 µM | 1.3 µM |  | 3.3 to 10 µM | 
CC(C)n1c(N2CCCC(O)C2)nc2c([N+](=O)[O-])c(Br)c(Br)cc21 (stereo not drawn) [Example 22G, 1-[5,6-dibromo-4-nitro-1-(propan-2-yl)-1H-1,3-benzodiazol-2-yl]piperidin-3-] |  | > 95% | 47% | 87% | 13% | 5% |  | 4.8 µM |  |  |  | > 10 µM | 
CC(C)n1c(N2CCC[C@H](O)C2)nc2c([N+](=O)[O-])c(Br)c(Br)cc21 [Example 22I, (3S)-1-[5,6-dibromo-4-nitro-1-(propan-2-yl)-1H-1,3-benzodiazol-2-yl]piperidin-3-ol] |  | > 95% | 28% | 84% | < 5% | < 5% | 20% | 5.4 µM |  |  |  | > 10 µM | 
CC(C)n1c(C2CCC(N)CC2)nc2c([N+](=O)[O-])c(Br)c(Br)cc21 (stereo not drawn) [Example 26D, 4-[5,6-dibromo-4-nitro-1-(propan-2-yl)-1H-1,3-benzodiazol-2-yl]cyclohexan-1-amine] |  | > 95% |  |  | 38% | 36% |  | 0.8 µM | 9.7 µM |  |  |  | IC50 (MOLM16 cells; Homo sapiens, MOLM16, 72 h): 1 µM
